Results as given in ChEMBL document CHEMBL1629592, “Real-time monitoring of human enterovirus (HEV)-infected cells and anti-HEV 3C protease potency by fluorescence resonance energy transfer” (Antimicrob Agents Chemother, 2009).

Experiments:
Assay type in all cases: functional, organism-based
[1] = test system: Enterovirus; assay: Antiviral activity against Human enterovirus EV71 infected in human HeLa cells after 2 to 4 days by formazan dye reduction assay
[2] = test system: Enterovirus; assay: Antiviral activity against Human enterovirus CVB4 infected in human HeLa cells after 2 to 4 days by formazan dye reduction assay
[3] = test system: Enterovirus; assay: Antiviral activity against Human enterovirus EV71 infected in Vero cells after 4 to 7 days by plaque reduction assay
[4] = test system: Enterovirus; assay: Antiviral activity against Human enterovirus Echo9 infected in human HeLa cells after 2 to 4 days by formazan dye reduction assay
[5] = test system: Enterovirus; assay: Antiviral activity against Human enterovirus CVA16 infected in human HeLa-G3CwtR cells after 36 to 48 hrs by FRET assay
[6] = test system: Enterovirus; assay: Antiviral activity against Human enterovirus Echo9 infected in human HeLa-G3CwtR cells after 36 to 48 hrs by FRET assay
[7] = test system: Enterovirus; assay: Antiviral activity against Human enterovirus CVB4 infected in Vero cells after 4 to 7 days by plaque reduction assay
[8] = test system: Enterovirus; assay: Antiviral activity against Human enterovirus CVB2 infected in Vero cells after 4 to 7 days by plaque reduction assay
[9] = test system: Enterovirus; assay: Antiviral activity against Human enterovirus CVB2 infected in human HeLa cells after 2 to 4 days by formazan dye reduction assay
[10] = test system: Enterovirus; assay: Antiviral activity against Human enterovirus EV71 infected in human HeLa-G3CwtR cells after 36 to 48 hrs by FRET assay
[11] = test system: Enterovirus; assay: Antiviral activity against Human enterovirus CVB2 infected in human HeLa-G3CwtR cells after 36 to 48 hrs by FRET assay
[12] = test system: Enterovirus; assay: Antiviral activity against Human enterovirus CVA16 infected in human HeLa cells after 2 to 4 days by formazan dye reduction assay
[13] = test system: Enterovirus; assay: Antiviral activity against Human enterovirus CVA16 infected in Vero cells after 4 to 7 days by plaque reduction assay
[14] = test system: Enterovirus; assay: Antiviral activity against Human enterovirus CVB1 infected in human HeLa-G3CwtR cells after 36 to 48 hrs by FRET assay
[15] = test system: Enterovirus; assay: Antiviral activity against Human enterovirus CVB1 infected in human HeLa cells after 2 to 4 days by formazan dye reduction assay
[16] = test system: Enterovirus; assay: Antiviral activity against Human enterovirus CVB1 infected in Vero cells after 4 to 7 days by plaque reduction assay
[17] = test system: Enterovirus; assay: Antiviral activity against Human enterovirus CVB4 infected in human HeLa-G3CwtR cells after 36 to 48 hrs by FRET assay
[18] = test system: Enterovirus; assay: Antiviral activity against Human enterovirus Echo9 infected in Vero cells after 4 to 7 days by plaque reduction assay

EC50 [1]: 561 nM | EC50 [2]: 372 nM | EC50 [3]: 791 nM | EC50 [4]: 360 nM | EC50 [5]: 331 nM | EC50 [6]: 434 nM | EC50 [7]: 843 nM | EC50 [8]: 982 nM | EC50 [9]: 783 nM | EC50 [10]: 781 nM | EC50 [11]: 857 nM | EC50 [12]: 270 nM | EC50 [13]: 419 nM | EC50 [14]: 1640 nM | EC50 [15]: 1250 nM | EC50 [16]: 1720 nM | EC50 [17]: 877 nM | EC50 [18]: 481 nM
Structure (SMILES): CCOC(=O)/C=C/[C@H](C[C@@H]1CCNC1=O)NC(=O)[C@@H](CC(=O)[C@@H](NC(=O)c1cc(C)on1)C(C)C)Cc1ccc(F)cc1 [RUPINTRIVIR]
